Data published in US9775844B2, “Heterocyclic compounds and uses thereof” (Infinity Pharmaceuticals, Inc., priority 2014, dated 2017).
Where two headings read alike, the source gives them in different places.

Assays:
human T cells = experiment: Concanavalin A-induced model for activation of human T cells (IFN-γ); type: cell-based
PI3K δ = PI3K δ (Homo sapiens (Human), UniProt O00329); experiment: PI3-Kinase Promega ADP-Glo Max assay; type: biochemical; details: IC50 against PI3K gamma divided by IC50 against PI3K delta
PI3K δ, sequence (O00329 whole entry): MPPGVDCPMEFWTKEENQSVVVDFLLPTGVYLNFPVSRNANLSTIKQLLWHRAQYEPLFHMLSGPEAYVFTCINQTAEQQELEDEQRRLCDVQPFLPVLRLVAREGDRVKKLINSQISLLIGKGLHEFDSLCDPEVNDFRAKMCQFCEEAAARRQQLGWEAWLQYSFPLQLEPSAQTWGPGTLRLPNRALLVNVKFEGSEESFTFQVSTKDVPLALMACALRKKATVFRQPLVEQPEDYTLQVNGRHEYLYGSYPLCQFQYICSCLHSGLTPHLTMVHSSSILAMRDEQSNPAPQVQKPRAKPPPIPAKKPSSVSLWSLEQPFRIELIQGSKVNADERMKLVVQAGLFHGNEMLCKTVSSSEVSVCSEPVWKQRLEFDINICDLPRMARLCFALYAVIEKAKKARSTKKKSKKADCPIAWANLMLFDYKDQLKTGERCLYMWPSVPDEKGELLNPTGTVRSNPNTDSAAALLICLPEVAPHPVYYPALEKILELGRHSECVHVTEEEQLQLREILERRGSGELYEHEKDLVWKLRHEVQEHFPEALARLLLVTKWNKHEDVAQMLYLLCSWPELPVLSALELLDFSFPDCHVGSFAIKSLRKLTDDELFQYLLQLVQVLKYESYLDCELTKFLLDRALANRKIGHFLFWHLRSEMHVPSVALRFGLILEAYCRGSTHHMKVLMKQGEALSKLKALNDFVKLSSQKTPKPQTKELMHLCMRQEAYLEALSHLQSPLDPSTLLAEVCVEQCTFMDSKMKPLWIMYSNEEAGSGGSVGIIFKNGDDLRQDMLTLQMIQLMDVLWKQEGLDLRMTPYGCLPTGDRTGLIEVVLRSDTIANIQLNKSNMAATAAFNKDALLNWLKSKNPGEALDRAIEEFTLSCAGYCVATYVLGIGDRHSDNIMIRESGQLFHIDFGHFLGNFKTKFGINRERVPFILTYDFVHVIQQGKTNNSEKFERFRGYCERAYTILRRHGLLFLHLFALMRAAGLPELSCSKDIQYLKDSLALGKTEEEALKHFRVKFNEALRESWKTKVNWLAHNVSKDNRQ
PI3K δ, sequence (P27986 whole entry partner): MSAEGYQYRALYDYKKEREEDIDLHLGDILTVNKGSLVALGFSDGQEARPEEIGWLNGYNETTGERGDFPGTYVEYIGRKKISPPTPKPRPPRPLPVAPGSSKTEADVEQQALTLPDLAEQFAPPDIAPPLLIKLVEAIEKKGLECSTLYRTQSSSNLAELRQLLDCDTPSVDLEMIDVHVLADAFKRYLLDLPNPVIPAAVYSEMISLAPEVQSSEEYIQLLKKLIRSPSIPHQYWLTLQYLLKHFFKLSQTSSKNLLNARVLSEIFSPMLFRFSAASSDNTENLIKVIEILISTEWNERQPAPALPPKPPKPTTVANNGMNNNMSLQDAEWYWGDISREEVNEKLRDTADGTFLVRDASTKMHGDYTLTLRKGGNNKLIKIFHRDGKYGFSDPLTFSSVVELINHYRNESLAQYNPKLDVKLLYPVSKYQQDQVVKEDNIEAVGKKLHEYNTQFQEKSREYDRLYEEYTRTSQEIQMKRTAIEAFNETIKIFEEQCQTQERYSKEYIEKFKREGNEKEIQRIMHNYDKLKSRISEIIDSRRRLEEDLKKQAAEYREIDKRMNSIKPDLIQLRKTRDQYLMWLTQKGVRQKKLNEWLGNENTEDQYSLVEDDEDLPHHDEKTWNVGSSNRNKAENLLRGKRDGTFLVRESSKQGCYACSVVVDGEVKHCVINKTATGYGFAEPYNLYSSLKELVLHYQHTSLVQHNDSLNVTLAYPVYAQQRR

PI3K-δ in RAJI cells = PI3K-δ in RAJI cells (Homo sapiens (Human), UniProt O00329); experiment: RAJI p110 δ assay (PI3K-δ selective cellular assay, phospho-AKT); type: cell-based; details: read-out: Cellular IC50 δ
PI3K-δ in RAJI cells, sequence (O00329 whole entry): as the sequence (O00329 whole entry) above
PI3K-δ in RAJI cells, sequence (P27986 whole entry partner): as the sequence (P27986 whole entry partner) above

[1] = target: PI3K-γ in RAW264.7 macrophages (Mus musculus (Mouse), UniProt Q9JHG7); experiment: Raw264.7 p110 γ assay (PI3K-γ selective cellular assay, C5a-stimulated phospho-AKT); type: cell-based; details: read-out: Cellular IC50 γ
Excerpt: Briefly, serum-starved RAW264.7 cells are stimulated with a known GPCR agonist C5a. […] Cells can be treated with test compounds prior to, simultaneously with, or subsequent to the stimulation by C5a. RAW 264.7 cells respond to the complement component fragment C5a through activation of the C5a receptor, and the C5a receptor activates macrophages and induces cell migration.

PI3K-α in SKOV-3 cells = PI3K-α in SKOV-3 cells (Homo sapiens (Human), UniProt P42336, H1047R); experiment: PI3K-α selective cellular assay (phospho-AKT); type: cell-based
PI3K-α in SKOV-3 cells, sequence (P42336 whole entry H1047R): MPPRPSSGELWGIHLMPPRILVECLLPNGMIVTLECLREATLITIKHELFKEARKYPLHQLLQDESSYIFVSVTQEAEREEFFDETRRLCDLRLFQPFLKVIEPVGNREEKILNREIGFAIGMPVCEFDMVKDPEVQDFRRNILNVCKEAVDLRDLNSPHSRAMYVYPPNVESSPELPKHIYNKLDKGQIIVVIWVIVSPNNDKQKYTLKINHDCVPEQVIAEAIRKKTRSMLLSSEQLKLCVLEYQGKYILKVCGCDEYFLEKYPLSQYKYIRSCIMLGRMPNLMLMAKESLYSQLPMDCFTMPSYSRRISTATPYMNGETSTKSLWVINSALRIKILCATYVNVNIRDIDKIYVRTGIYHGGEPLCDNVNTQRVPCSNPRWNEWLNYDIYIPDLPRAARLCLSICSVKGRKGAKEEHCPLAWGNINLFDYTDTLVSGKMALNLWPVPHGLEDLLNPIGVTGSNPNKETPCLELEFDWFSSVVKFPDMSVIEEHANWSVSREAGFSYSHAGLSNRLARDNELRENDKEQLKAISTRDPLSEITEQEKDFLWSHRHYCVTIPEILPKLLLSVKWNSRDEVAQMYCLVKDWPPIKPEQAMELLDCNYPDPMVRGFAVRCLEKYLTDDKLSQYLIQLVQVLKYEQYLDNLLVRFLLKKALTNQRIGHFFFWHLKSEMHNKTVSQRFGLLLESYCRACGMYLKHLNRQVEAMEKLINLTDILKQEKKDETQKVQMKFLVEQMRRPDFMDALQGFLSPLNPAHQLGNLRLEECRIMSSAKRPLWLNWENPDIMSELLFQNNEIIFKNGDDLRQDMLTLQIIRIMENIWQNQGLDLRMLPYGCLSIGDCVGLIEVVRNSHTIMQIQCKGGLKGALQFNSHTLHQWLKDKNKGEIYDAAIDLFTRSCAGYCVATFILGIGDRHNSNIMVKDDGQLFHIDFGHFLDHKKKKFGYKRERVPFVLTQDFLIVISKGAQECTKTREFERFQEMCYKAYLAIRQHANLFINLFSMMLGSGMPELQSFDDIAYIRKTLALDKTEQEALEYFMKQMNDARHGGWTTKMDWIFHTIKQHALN
PI3K-α in SKOV-3 cells, sequence (P27986 whole entry partner): as the sequence (P27986 whole entry partner) above

PI3K-β in 786-O cells = PI3K-β in 786-O cells (Homo sapiens (Human), UniProt P42338); experiment: PI3K-β selective cellular assay (phospho-AKT); type: cell-based
PI3K-β in 786-O cells, sequence (P42338 whole entry): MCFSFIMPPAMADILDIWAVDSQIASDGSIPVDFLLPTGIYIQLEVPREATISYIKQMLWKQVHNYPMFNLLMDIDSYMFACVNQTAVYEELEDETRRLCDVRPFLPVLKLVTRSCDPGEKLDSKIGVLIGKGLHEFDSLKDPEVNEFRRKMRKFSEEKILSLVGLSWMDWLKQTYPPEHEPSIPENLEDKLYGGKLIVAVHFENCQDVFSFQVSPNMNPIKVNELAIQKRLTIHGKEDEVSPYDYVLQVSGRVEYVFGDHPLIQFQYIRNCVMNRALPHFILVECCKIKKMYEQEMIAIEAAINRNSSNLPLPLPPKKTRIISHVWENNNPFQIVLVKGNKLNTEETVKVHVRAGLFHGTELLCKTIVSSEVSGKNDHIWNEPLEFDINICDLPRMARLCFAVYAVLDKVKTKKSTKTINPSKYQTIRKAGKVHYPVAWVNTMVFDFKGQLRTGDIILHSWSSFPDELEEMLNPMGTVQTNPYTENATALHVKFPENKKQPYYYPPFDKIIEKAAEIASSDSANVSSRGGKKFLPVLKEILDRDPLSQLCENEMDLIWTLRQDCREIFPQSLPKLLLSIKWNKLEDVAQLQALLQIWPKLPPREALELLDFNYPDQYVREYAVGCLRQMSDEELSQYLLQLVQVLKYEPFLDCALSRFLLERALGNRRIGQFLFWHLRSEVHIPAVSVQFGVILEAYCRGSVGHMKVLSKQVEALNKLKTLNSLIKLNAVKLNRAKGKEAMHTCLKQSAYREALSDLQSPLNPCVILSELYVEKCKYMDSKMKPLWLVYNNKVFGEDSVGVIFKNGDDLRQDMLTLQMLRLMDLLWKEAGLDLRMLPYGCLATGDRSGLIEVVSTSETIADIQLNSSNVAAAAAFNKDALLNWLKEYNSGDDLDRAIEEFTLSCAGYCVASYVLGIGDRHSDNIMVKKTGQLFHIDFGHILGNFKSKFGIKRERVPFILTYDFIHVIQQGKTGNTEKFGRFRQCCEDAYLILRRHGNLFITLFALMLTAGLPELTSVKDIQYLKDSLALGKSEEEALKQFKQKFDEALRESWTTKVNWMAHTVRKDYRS
PI3K-β in 786-O cells, sequence (P27986 whole entry partner): as the sequence (P27986 whole entry partner) above

[2] = system: LPS induced neutrophil influx in bronchoalveolar lavage fluid; experiment: LPS-induced neutrophilia, oral administration; type: in vivo; details: rat, p.o., 4 hours post-LPS challenge, dose dependent
Method: (§1) This study also includes assessment of the exposure to the compounds in plasma and lung tissues.
(§2) Ref C is budesonide p.o. The compound was administered p.o. and about 1 hour later, LPS was administered intra-tracheally and plasma was collected. After about 5 hours, plasma and bronchoalveolar lavage samples were collected.

[3] = Oral PK in the rat LPS studies (free plasma concentration); type: in vivo; details: for concentration at 1.5 h / concentration at […]: plasma, po, read-out: Free Plasma Conc; for concentration at […]: 5.5h
Method: as §1, §2

[4] = system: CXCL12 induced p-AKT in polarized bone marrow derived macrophages; experiment: CXCL12-induced p-AKT induction assay in differentiated macrophages; type: cell-based, mouse
Excerpt: Macrophage Differentiation and Polarization: Long bones from young C57B6 mice were harvested and bone marrow was extruded by gentle lavage of the bone marrow cavities with a 28 gauge needle. Red blood cells were removed using red blood cell lysis buffer (Sigma). Bone marrow cells were differentiated to macrophages using MCSF for 6 days (RPMI and 20% FCS) with one media change (with removal of all non-adherent cells) at day 3. Macrophages were polarized into MO (MCSF), M1 (MCSF, IFNγ, and LPS for 1 day), or M2 (MCSF, IL4 for 2 days).
CXCL12-Induced p-AKT Induction Assay: Polarized macrophages were lifted with Acutase, and plated at 0.5M cells per well (0.5 ml) in a deep well (2 ml) non adherant plate in polarization media for 1 hour. […] CXCL12 was added, and the cells were mixed on a plate shaker for 2 minutes. 1 ml of 37 degree FACS Lyse/fix buffer (BD bioscience) was added and the plate was mixed for 1 minute. The plates were spun and decanted and frozen at −80° C. Phospho AKT staining with anti Phospho AKT 473 PERCP labeled (Cell Signaling Technologies) was performed and measured by flow cytometry. Total cell MFI was used to calculate the effect of tested compound on CXCL12 induction of phospho AKT.

PI3K-delta = PI3K-delta (Homo sapiens (Human), UniProt O00329); details: as described in Table 4 of WO2013/032591; cited from earlier work
PI3K-delta, sequence (O00329 whole entry, species assumed, the tested form may be a part): as the sequence (O00329 whole entry) above
PI3K-delta, sequence (P27986 whole entry partner, species assumed, the tested form may be a part): as the sequence (P27986 whole entry partner) above

[5] = system: IL-8 induced neutrophil migration; experiment: IL-8 driven murine air pouch model; details: mouse air pouch; BB 0.1-3 mg/kg, AA 10-50 mg/kg

CC(C)n1c([C@H](C)Nc2ncnc(N)c2C#N)cc2cccc(-c3ccc(=O)n(C)c3)c2c1=O [Compound AA, reference compound]
inhibition of IFN-γ (human T cells): highly selective inhibitor of IFN-γ
gamma/delta selectivity ratio (PI3K δ): greater than 50
IC50 (PI3K-δ in RAJI cells): 0.0001 µM
IC50 [1]: 0.418 µM
IC50 (PI3K-α in SKOV-3 cells): 1.9 µM
IC50 (PI3K-β in 786-O cells): 0.102 µM
neutrophil in bronchoalveolar lavage fluid (BALF) [2]: reduced neutrophil
Free Plasma Conc ([3]; p.o. 0.2 mg/kg, 1.5h): BLQ
concentration at 1.5 h ([3]; p.o. 1 mg/kg, 1.5h): 1.8 nM
concentration at […] ([3]; p.o. 1 mg/kg): 1.1 nM
concentration at 1.5 h ([3]; p.o. 5 mg/kg, 1.5h): 17.8 nM
concentration at […] ([3]; p.o. 5 mg/kg): 4.6 nM
IC50, CXCL12 induced p-AKT ([4]; differentiated and M1 polarized macrophage): did not significantly inhibit
IC50, CXCL12 induced p-AKT ([4]; differentiated and M2 polarized macrophage): did not significantly inhibit
IC50 (PI3K-delta): < 0.1 µM
IL-8 induced neutrophil migration [5]: does not inhibit IL-8 induced neutrophil migration
